# From patent publication US11702422B2, “Imidazopyridazines as modulators of IL-17” (Janssen Pharmaceutica NV, priority 2020, dated 2023)
# Experiments:
# [1] = molecular target: IL-17A(FLAG-Tagged): IL-17RA(His-Tagged) (Homo sapiens, UniProt Q16552, K93Q); assay: IL-17A(FLAG-Tagged): IL-17RA(His-Tagged) Binding Disruption Eu-HTRF Assay; conditions: IL-17A/IL-17RA binding disruption, simple average if tested more than once
# Outline: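 IC50 comes from a one-site competition fit of the HTRF 665/620 nm ratio. Compound dilutions (2-fold, 22 points) were held 1 h rt with FLAG-tagged IL-17A dimer, then His-tagged IL-17RA plus Eu-cryptate anti-FLAG and D2 anti-His antibodies were added for 2 h rt.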
# [2] = test system: IL-17A-induced G-CSF production in human normal keratinocyte (NHK); assay: NHK Assay: IL-17A-induced G-CSF production in human normal keratinocytes; format: cell-based; conditions: 24 h, adult normal human keratinocytes, IL-17A 5 ng/mL, simple average if tested more than once
# Outline: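 G-CSF released by primary adult human keratinocytes after 24 h at 37° C was quantified by HTRF via standard curve to give IC50. Stimulus was 5 ng/mL IL-17A pre-mixed 1 h at rt with compound dilutions, in 5% FBS and 0.2% DMSO. Cell viability was assessed in parallel with CellTiter-Glo.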
# UniProt Q16552, sequence (Q16552 with tags, fused parts or gaps K93Q): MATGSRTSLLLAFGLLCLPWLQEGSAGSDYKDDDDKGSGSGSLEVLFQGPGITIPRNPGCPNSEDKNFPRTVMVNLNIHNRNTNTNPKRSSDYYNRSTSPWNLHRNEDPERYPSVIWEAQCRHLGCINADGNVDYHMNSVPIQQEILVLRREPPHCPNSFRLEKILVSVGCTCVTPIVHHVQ
SMILES,IC50 [1] [nM],"IC50 ([2]; Homo sapiens, Keratinocyte) [nM]",IC50 [2] [nM]
"Cc1nonc1C(=O)N[C@H](c1cn2ncc([C@H](NC(=O)CC(C)(F)F)C3CC3)cc2n1)C1CCC(F)(F)CC1 [Example 263, N—((S)-(7-((R)-Cyclopropyl(3,3-difluorobutanamido)methyl)imidazo[1,2-b]pyridazin-2-yl)(4,4-difluorocyclohexyl)methyl)-4-methyl-1,2,5-oxadiazole-3-carboxamide]",210,1800,
"O=C(CC1CC(F)(F)C1)N[C@@H](c1cnn2cc([C@@H](NC(=O)c3nonc3C3(O)CCCC3)C3CCC(F)(F)CC3)nc2c1)C1CC1 [Example 393, N—((S)-(7-((R)-Cyclopropyl(2-(3,3-difluorocyclobutyl)acetamido)methyl)imidazo[1,2-b]pyridazin-2-yl)(4,4-difluorocyclohexyl)methyl)-4-(1-hydroxycyclopentyl)-1,2,5-oxadiazole-3-carboxamide]",94,120,
"CC(C)n1nccc1C(=O)N[C@H](c1cn2ncc([C@H](NC(=O)COC3CC3)C3CC3)cc2n1)C1CCC(F)(F)CC1 [Example 307, N—((S)-(7-((R)-(2-Cyclopropoxyacetamido)(cyclopropyl)methyl)imidazo[1,2-b]pyridazin-2-yl)(4,4-difluorocyclohexyl)methyl)-1-isopropyl-1H-pyrazole-5-carboxamide]",110,420,
"CC(C)n1nccc1C(=O)N[C@H](c1cn2ncc([C@H](NC(=O)CCC(F)F)C3CC3)cc2n1)C1CCC(F)(F)CC1 [Example 280, N—((S)-(7-((R)-Cyclopropyl(4,4-difluorobutanamido)methyl)imidazo[1,2-b]pyridazin-2-yl)(4,4-difluorocyclohexyl)methyl)-1-isopropyl-1H-pyrazole-5-carboxamide]",54,120,
"O=C(CCC(F)(F)F)N[C@@H](c1cnn2cc([C@@H](NC(=O)c3cccc(N4CCCC4=O)c3)C3CCC(F)(F)CC3)nc2c1)C1CC1 [Example 163, N—((S)-(7-((R)-Cyclopropyl(4,4,4-trifluorobutanamido)methyl)imidazo[1,2-b]pyridazin-2-yl)(4,4-difluorocyclohexyl)methyl)-3-(2-oxopyrrolidin-1-yl)benzamide]",120,100,
"Cc1nonc1C(=O)N[C@H](c1cn2ncc([C@H](NC(=O)C(F)C3CCC3)C3CC3)cc2n1)C1CCC(F)(F)CC1 (single isomer, unassigned) [Example 348, N—((S)-(7-((R)-((R*)-2-Cyclobutyl-2-fluoroacetamido)(cyclopropyl)methyl)imidazo[1,2-b]pyridazin-2-yl)(4,4-difluorocyclohexyl)methyl)-4-methyl-1,2,5-oxadiazole-3-carboxamide]",69,,220
Cc1nonc1C(=O)N[C@H](c1cn2ncc([C@H](NC(=O)C[C@H]3CC3(F)F)C3CC3)cc2n1)C1CCC(F)(F)CC1 (relative stereo) [Example 255],170,600,
"O=C(CCC(F)(F)F)N[C@@H](c1cnn2cc([C@@H](NC(=O)c3ncnn3CC(F)F)C3CCC(F)(F)CC3)nc2c1)C1CC1 [Example 56, N—((S)-(7-((R)-Cyclopropyl(4,4,4-trifluorobutanamido)methyl)imidazo[1,2-b]pyridazin-2-yl)(4,4-difluorocyclohexyl)methyl)-1-(2,2-difluoroethyl)-1H-1,2,4-triazole-5-carboxamide]",170,730,
"N#Cc1ccccc1C(=O)N[C@H](c1cn2ncc([C@H](NC(=O)CCC(F)(F)F)C3CC3)cc2n1)C1CCC(F)(F)CC1 [Example 208, 2-Cyano-N—((S)-(7-((R)-cyclopropyl(4,4,4-trifluorobutanamido)methyl)imidazo[1,2-b]pyridazin-2-yl)(4,4-difluorocyclohexyl)methyl)benzamide]",5300,> 20000,
